Patent US8865714B2, “Piperazine compound capable of inhibiting prostaglandin D synthase” (Taiho Pharmaceutical Co., Ltd., priority 2009, dated 2014)

Assays:
[1] = tested on: C57BL/10-mdx (mdx) mice; assay: Forelimb grip strength test in mice; assay type: in vivo; details: 30 mg/kg orally once a day for 4 weeks, * = significance level below 0.05 vs control group
Procedure: 4-week-old male C57BL/10-mdx (mdx) mice were used as a disease group, and 4-week-old male C57BL/10Sn (wild) mice were used as a normal group in the test. A acclimation period was provided after the arrival of the mice. An initial value of each individual was measured at 5 weeks of age, and 10 mice were assigned to each group. From the following day, the test compound (30 mg/kg) was orally administered to the mice once a day consecutively for 4 weeks. The animals in the control group only received the vehicle orally. The forelimb grip strength was measured at 4 weeks after the start of the administration. A value obtained by dividing the average of 5 forelimb grip strength measurement values (kg) determined using a small animal grip strength measurement device (GPM-100M, Melquest) by the body weight (kg) was used as the evaluation index (reference literature: Muscle Nerve., 35, 43-48 (2007)).
9 or more cases were obtained from each group to determine whether expression of forelimb grip strength enhancing action occurred. First, a significant decrease in the value of the control group compared to that of the normal group was confirmed, and then the value of the control group was compared with the value of the compound-administered group. When the significance level was below 0.05, the action was considered to be present and indicated by symbols (#) and (*) in the table.

[2] = tested on: eosinophil infiltration in guinea pigs with antigen-induced rhinitis; assay: Eosinophil infiltration inhibiting action in guinea pigs with antigen-induced rhinitis; assay type: in vivo; details: 30 mg/kg orally 3 times; washing 6 hours after induction; * = significance level below 0.05 vs control group
Procedure: (§1) A physiological saline solution containing 1 mg/mL of ovalbumin was subcutaneously injected into the back of 5-week-old male Std:Hartley guinea pigs in an amount of 1 mL/body for active sensitization (initial sensitization). One week and two weeks after initial sensitization, 20 μL of a physiological saline solution containing 10 mg/mL of ovalbumin was instilled into each nasal cavity using a micropipette (sensitization by nasal administration). Three weeks after initial sensitization, 20 μL of a physiological saline solution containing 10 mg/mL of ovalbumin was instilled into each nasal cavity using a micropipette to induce a rhinitis reaction.
The test compound (30 mg/kg) was orally administered 3 times in total (2 times at sensitization by nasal administrations and 1 time at the induction of a rhinitis reaction), 1 hour before sensitization or induction. The animals in the control group only received the medium orally.
6 hours after the induction of a rhinitis reaction, the nasal cavities were washed under pentobarbital sodium anesthesia. A nasal cavity washing liquid (phosphate buffered saline containing 3 mM of EDTA and 10 μM of indomethacin) was flushed using a Peristaltic Pump (Gilson, Inc.) in the direction from the trachea to the upper respiratory tract at the flow rate of 1 mL/min, and the liquid flowing out from the nasal cavities was collected for 3 minutes. The collected liquid was filtered through a cell strainer (40 μm), and centrifuged at 4° C., 300×g, for 10 minutes. Subsequently, the supernatant was removed by suction. 250 μL of nasal cavity washing liquid was added to the cell pellet to form a suspension. The total number of cells (×10^5 cells) in the cell suspension was determined using an automated blood cell counter (F-820, Sysmex Corporation).
A cell smear was prepared using a centrifugal device to collect cells (Cytospin-3, Shandon). After the cells were stained using a cell stain solution, the number of monocytes, the number of eosinophils, and the number of neutrophils were counted to obtain 300 cells in total by observation under a microscope (200-times magnification). The component ratio of each cell was calculated, and the number of eosinophils in the nasal cavity washing liquid was determined by the following formula. Number of eosinophils([…])=(Eosinophil count÷total count(300))×total number of cells
The rate of decrease in the number of eosinophils in the nasal cavity washing liquid was regarded as the eosinophil infiltration inhibition rate, and determined by the following formula. […] Inhibition rate(%)={(Number of eosinophils in the control group−number of eosinophils in the compound-administered group)÷(number of eosinophils in the control group−number of eosinophils in the normal group)}×100
16 cases were obtained from each group, and the number of eosinophils in the nasal cavity washing fluid was compared between the control group and each compound-administered group. Note that when the significance level was below 0.05, the eosinophil infiltration inhibiting action was considered to be present and indicated by a symbol (*) in the table.

[3] = tested on: PGD2 production in the nasal cavities of guinea pigs with antigen-induced rhinitis; assay: PGD2 production inhibiting action in the nasal cavities of guinea pigs with antigen-induced rhinitis; assay type: in vivo; details: for Rate of decrease in PGD2 concentration in the nasal cavity washing fluid (%): 30 mg/kg orally 1 hour before induction, washing 30 minutes after induction, * = significance level below 0.05 vs control group
Procedure: as §1
The test compound (30 mg/kg) was orally administered 1 hour before induction of a rhinitis reaction. The animals in the control group only received the medium orally.
30 minutes after the induction of a rhinitis reaction, the nasal cavities were washed under pentobarbital sodium anesthesia. A nasal cavity washing liquid (phosphate buffered saline containing 3 mM of EDTA and 10 μM of indomethacin) was flushed using a Peristaltic Pump (Gilson, Inc.) in the direction from the trachea to the upper respiratory tract at the flow rate of 1 mL/min, and the liquid flowing out from the nasal cavities was collected for 1 minute. The collected liquid was centrifuged to separate the supernatant as the nasal cavity washing fluid. The concentration of PGD2 in the nasal cavity washing fluid was determined using an EIA kit (Prostaglandin D2-MOX EIA kit, Cayman Chemical).
The rate of decrease in PGD2 in the nasal cavity washing fluid was calculated by the following formula. […] Rate of decrease in PGD2 in the nasal cavity washing fluid(%)={(PGD2 concentration in the control group−PGD2 concentration in the compound-administered group)÷(PGD2 concentration in the control group−PGD2 concentration in the normal group)}×100 […]

[4] = molecular target: human H-PGDS (Homo sapiens (Human), UniProt O60760); assay: Hematopoietic prostaglandin D synthase (H-PGDS) inhibiting action; assay type: biochemical; details: human H-PGDS, [14C] prostaglandin H2 10 μM
Sequence of human H-PGDS (O60760 whole entry): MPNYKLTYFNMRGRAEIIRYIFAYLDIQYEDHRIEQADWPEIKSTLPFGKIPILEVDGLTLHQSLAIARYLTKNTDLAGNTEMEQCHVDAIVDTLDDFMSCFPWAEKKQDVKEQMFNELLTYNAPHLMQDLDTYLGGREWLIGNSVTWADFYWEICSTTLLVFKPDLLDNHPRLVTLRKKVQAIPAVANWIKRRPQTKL
Procedure: More specifically, the reaction mixture (49 μL) containing 100 mM Tris-HCl (pH 8.0), 1 mM reduced glutathione, 0.1 mg/mL γ-globulin, and human H-PGDS (q.s.), and a compound (final concentration: 0.01-100 μM) was preincubated at 25° C. for 5 minutes. Note that a DMSO solution (final concentration: 1%) was added to the solvent control group. Subsequently, 1 μL of [14C] prostaglandin H2 (final concentration: 10 μM) was added to start the reaction. One minute after the start of the reaction, 250 μL of a reaction stopper solution (diethylether/methanol/1 M citric acid (30/4/1) at a temperature of −20° C. was added to stop the reaction. After the reaction was stopped, 50 μL of the upper layer portion (organic solvent phase) was applied to a TLC plate and developed at −20° C. for 45 minutes (developing solvent: diethylether/methanol/acetic acid (90/2/1)). After drying the TLC plate, the TLC plate was exposed to an imaging plate for 1 to 24 hours, and the radioactivity corresponding to prostaglandin D2 (PGD2) was analyzed using an image analyzer (produced by Fujifilm Corporation).

| Molecule | Forelimb grip strength measurement value/body weight (kg/kg) [1] | Eosinophil infiltration inhibition rate (%) [2] | Rate of decrease in PGD2 concentration in the nasal cavity washing fluid (%) [3] | PGD2 production inhibiting action (in words) ([3]; 30 mg/kg orally, summary of Table 2) | H-PGDS inhibition rate (%) ([4]; compound at 0.1 μM, relative to the control group) | IC50 ([4]; read-out: IC50) [µM] |
| --- | --- | --- | --- | --- | --- | --- |
| O=C(Nc1nc2ccc(Br)cc2s1)N1CCN(C(=O)c2cccc(F)c2)CC1 [Reference Example 13, 4-(3-fluorobenzoyl)-piperazine-1-carboxylic acid-(6-bromobenzothiazol-2-yl)amide] | 4.37 ± 0.15 kg/kg | 34.2% |  |  |  |  |
| O=C(Nc1nc2ccc(Cl)cc2s1)N1CCN(C(=O)c2cccc(F)c2)CC1 [Reference Example 17, 4-(3-fluorobenzoyl)piperazine-1-carboxylic acid-(6-chlorobenzothiazol-2-yl)amide] | 4.48 ± 0.15 kg/kg | 16.6% |  |  |  |  |
| Cc1cc2nc(NC(=O)N3CCN(C(=O)c4cccc(F)c4)CC3)sc2cc1C [Reference Example 14, 4-(3-fluorobenzoyl)-piperazine-1-carboxylic acid-(5,6-dimethylbenzothiazol-2-yl)amide] | 4.26 ± 0.22 kg/kg | −25.1% |  |  |  |  |
| COc1ccc2nc(NC(=O)N3CCN(C(=O)c4cccc(F)c4)CC3)sc2c1 [Reference Example 16, 4-(3-fluorobenzoyl)piperazine-1-carboxylic acid-(6-methoxybenzothiazol-2-yl)amide] | 4.29 ± 0.24 kg/kg | −108.0* % |  |  |  |  |
| CON(C)C(=O)c1[nH]c(C)c(-c2nc3ccc(C(=O)c4ccccc4)cc3[nH]2)c1C [Reference Example 19, N-methoxy-N-methyl-4-(5-benzoylbenzimidazol-2-yl)-3,5-dimethylpyrrol-2-carboxamide] |  |  | 77.0* % | have the action |  |  |
| Cc1ccc2nc(NC(=O)N3CCN(C(=O)c4cccc(F)c4)CC3)sc2c1 [Reference Example 15, 4-(3-fluorobenzoyl)piperazine-1-carboxylic acid-(6-methylbenzothiazol-2-yl)amide] | 4.20 ± 0.20 kg/kg | −133.3* % |  |  |  |  |
| 4-((1-methylpyrrol-2-yl)-carbonyl)-N-(4-(4-morpholin-1-yl-carbonylpiperidin-1-yl)-phenyl)-1-piperazinecarboxamide [Example 3] | 4.80 ± 0.09* kg/kg | 49.9* % | 77.5* % |  | 54.2 | 0.076 |
